EP0973746B1, “SUBSTITUTED 3-CYANO QUINOLINES” (Wyeth Holdings Corporation, priority 1997, dated 1998)
pIC50: −log10 of the molar value. Values after ≈ are worked out from the molar mass of the structure shown. Values joined by “and” are separate entries in the source; they are usually repeats but may differ in a detail not shown here. Identical values can stand only once.

Key:
[1] = target: Epithelial Cell Kinase (ECK) (Homo sapiens, UniProt P29317); test: biochemical
Experimental: In this standard pharmacological test procedure, a biotinylated peptide substrate is first immobilized on neutravidin-coated microtiter plates. The test drug, the Epithelial Cell Kinase (ECK), Mg^++, sodium vanadate (a protein tyrosine phosphatase inhibitor), and an appropriate buffer to maintain pH (7.2) are then added to the immobilized substrate-containing microtiter wells. ATP is then added to initiate phosphorylation. After incubation, the assay plates are washed with a suitable buffer leaving behind phosphorylated peptide which is exposed to horse radish peroxidase (HRP)-conjugated anti-phosphotyrosine monoclonal antibody. The antibody-treated plates are washed again and the HRP activity in individual wells is quantified as a reflection of degree of substrate phosphorylation.

[2] = target: T1, Kinase insert Domain containing Receptor (KDR: the catalytic domain of the VEGF receptor) (Homo sapiens, UniProt P35968); test: Inhibition of Kinase insert Domain containing Receptor (KDR); format: biochemical; settings: pH 7.2; radioactive format; read-out: KDR IC50 (converted);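 note: KDR phosphorylating a Glu:Tyr 4:1 copolymer with P32- or P33-labelled ATP, Mg++ and vanadate, read as acid-insoluble radiolabel, compared with compound-free reaction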
T1 construct: KDR: the catalytic domain of the VEGF receptor
T1 sequence (P35968 834-1162 limits assumed): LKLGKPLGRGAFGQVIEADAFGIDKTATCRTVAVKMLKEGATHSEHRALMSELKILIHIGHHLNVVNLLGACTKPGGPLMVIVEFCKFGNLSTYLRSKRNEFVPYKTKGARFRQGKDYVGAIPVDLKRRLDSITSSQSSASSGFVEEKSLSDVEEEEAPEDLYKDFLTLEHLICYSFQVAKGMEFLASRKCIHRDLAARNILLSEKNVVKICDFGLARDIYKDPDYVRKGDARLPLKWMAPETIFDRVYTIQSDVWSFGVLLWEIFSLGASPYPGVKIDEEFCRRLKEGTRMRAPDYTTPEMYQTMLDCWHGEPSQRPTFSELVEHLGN

[3] = tested on: human epidermoid tumors (A431); test: In vivo inhibition of the growth of human epidermoid tumors (A431); settings: Table 10; for S/T = No. Survivors/No. Treated: Day +28 post tumor staging
Experimental: Representative compounds of this invention (listed below) were evaluated in an in vivo standard pharmacological test procedure which measured its ability to inhibit the growth of human epidermoid tumors. […] BALB/c nu/nu female mice (Charles River, Wilmington, MA) were used in this in vivo standard pharmacological test procedure. A unit of 5 X 10^6 cells were injected SC into mice. When tumors attained a mass of between 100 and 150 mg, the mice were randomized into treatment groups (day zero). […] Control animals received no drug. Tumor mass was determined every 7 days [(length X width^2)/2] for 28 days post staging. Relative tumor growth (Mean tumor mass on days 7, 14, 21, and 28 divided by the mean tumor mass on day zero) is determined for each treatment group.

[4] = target: recombinant human MEK 1 (MAPKK) and recombinant human ERK2 (MAPK); test: Mitogen Activated Protein Kinase (MAPK) assay, two component coupled MEK 1 / ERK2; format: biochemical; settings: separate entries for the same compound = evaluated more than one time;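 note: MEK 1-activated ERK2 phosphorylates MBP or Myc peptide with 33P-ATP, filter capture and scintillation counting, inhibitor preincubated with ERK2 30 min at 0 °C, inhibition relative to uninhibited control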
[5] = target: T2, His-tagged cytoplasmic domain of EGFR (Homo sapiens, UniProt P00533); test: Inhibition of Epidermal Growth Factor Receptor Kinase (EGF-R) using recombinant enzyme; format: biochemical; settings: recombinant enzyme; RR-SRC peptide; average of the number of tests; read-out: IC50;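 note: radiometric kinase assay measuring radiolabeled phosphate transfer from ATP onto the peptide tyrosine by scintillation counting, control is reaction without compound, background subtracted, IC50 from dose-response curve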
T2 construct: containing the EGFR cDNA encoding amino acids 645 - 1186 preceded by Met-Ala-(His)6; made in house; host or cells: Sf9 cells, recombinant baculovirus vHcEGFR52
T2 sequence (P00533 669-1210): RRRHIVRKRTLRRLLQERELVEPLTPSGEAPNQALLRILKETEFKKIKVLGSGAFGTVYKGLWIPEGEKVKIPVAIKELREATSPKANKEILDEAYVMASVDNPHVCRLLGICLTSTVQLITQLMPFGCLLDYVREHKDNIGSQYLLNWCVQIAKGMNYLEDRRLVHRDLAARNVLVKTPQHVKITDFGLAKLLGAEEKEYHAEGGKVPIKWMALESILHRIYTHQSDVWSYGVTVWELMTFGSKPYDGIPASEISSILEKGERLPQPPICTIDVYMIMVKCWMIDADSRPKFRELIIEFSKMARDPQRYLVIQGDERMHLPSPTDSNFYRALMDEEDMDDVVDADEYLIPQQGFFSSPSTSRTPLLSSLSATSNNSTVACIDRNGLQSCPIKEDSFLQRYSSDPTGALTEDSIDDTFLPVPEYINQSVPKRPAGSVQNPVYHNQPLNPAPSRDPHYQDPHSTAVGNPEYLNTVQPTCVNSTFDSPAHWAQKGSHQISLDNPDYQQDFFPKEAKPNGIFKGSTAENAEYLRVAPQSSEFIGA

A431 = test: Inhibition of cancer cell growth as measured by cell number, A431; format: cell-based, human; settings: Homo sapiens, A-431, 48 h, read-out: IC50 A431;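 note: human A431 line, picked because it overexpresses epidermal growth factor receptor (EGFR)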
Excerpt: (§1) The cell lines were chosen since they overexpressed epidermal growth factor receptor (EGFR) (i.e. A431) or HER2/neu (SKBR3), or had little to no expression of the these receptors (SW620, LOX, MCF7).

SKBR3 = test: Inhibition of cancer cell growth as measured by cell number, SKBR3; format: cell-based, human; settings: Homo sapiens, SK-BR-3, 48 h, read-out: IC50 SKBR3;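 note: SK-BR-3 cells were selected as a line overexpressing HER2/neu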
Excerpt: as §1

SW620 = test: Inhibition of cancer cell growth as measured by cell number, SW620; format: cell-based, human; settings: Homo sapiens, SW-620, 48 h, read-out: IC50 SW620;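 note: SW620 was included as a cell line with little or no EGFR or HER2/neu expression, in contrast to receptor-overexpressing lines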
Excerpt: as §1

LOX = test: Inhibition of cancer cell growth as measured by cell number, LOX; format: cell-based, human; settings: Homo sapiens, LOX, 48 h, read-out: IC50 LOX;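 note: LOX cells served as a line with low or absent EGFR and HER2/neu expression, in contrast to receptor-overexpressing lines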
Excerpt: as §1

[6] = 80 mg/kg/dose PO on days 1 through 10

Sequence of Epithelial Cell Kinase (ECK) (P29317 24-976, species assumed): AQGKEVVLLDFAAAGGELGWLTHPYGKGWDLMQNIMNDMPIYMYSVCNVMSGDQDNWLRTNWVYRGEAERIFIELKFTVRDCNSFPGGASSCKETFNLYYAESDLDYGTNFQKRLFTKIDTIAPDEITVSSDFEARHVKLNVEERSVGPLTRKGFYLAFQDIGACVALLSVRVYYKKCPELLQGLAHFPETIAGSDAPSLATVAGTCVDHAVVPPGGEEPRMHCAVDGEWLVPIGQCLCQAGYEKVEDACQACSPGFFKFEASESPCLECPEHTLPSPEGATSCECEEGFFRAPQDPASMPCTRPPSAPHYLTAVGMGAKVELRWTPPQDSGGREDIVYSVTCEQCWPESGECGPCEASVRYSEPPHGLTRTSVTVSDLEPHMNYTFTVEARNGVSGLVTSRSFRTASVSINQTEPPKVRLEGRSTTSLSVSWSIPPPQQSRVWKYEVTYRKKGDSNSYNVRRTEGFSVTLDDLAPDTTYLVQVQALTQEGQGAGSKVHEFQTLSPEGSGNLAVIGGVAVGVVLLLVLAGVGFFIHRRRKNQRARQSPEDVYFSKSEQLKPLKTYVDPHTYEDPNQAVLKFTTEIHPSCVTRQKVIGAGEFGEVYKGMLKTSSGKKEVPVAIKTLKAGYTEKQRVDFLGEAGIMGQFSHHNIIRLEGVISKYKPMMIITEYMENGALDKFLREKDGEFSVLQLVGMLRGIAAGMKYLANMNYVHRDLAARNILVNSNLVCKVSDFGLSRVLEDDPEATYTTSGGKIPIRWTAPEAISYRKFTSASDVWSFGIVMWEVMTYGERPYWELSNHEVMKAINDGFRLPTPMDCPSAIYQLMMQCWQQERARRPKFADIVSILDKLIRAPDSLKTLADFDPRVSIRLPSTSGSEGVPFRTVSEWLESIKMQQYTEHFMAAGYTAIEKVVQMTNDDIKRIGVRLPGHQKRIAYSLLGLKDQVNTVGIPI

| IC50 [2] [µM] | SMILES | pIC50 [1] | %T/C Day 7 ([3]; 80 mg/kg/dose IP on days 1,5,9) [%] | %T/C Day 14 ([3]; 80 mg/kg/dose IP on days 1,5,9) [%] | %T/C Day 21 ([3]; 80 mg/kg/dose IP on days 1,5,9) [%] | %T/C Day 28 ([3]; 80 mg/kg/dose IP on days 1,5,9) [%] | S/T = No. Survivors/No. Treated ([3]; 80 mg/kg/dose IP on days 1,5,9) | %T/C Day 7 [3, 6] [%] | %T/C Day 14 [3, 6] [%] | %T/C Day 21 [3, 6] [%] | %T/C Day 28 [3, 6] [%] | S/T = No. Survivors/No. Treated [3, 6] | pIC50 [4] | pIC50 [5] | IC50 (A431) [µg/mL] | IC50 (SKBR3) [µg/mL] | IC50 (SW620) [µg/mL] | IC50 (LOX) [µg/mL] |
| --- | --- | --- | --- | --- | --- | --- | --- | --- | --- | --- | --- | --- | --- | --- | --- | --- | --- | --- |
| 0.616 | COc1cc2c(Nc3cc(O)c(Cl)cc3F)c(C#N)cnc2cc1OCCCN1CCOCC1 [Example 85, 4-(4-Chloro-2-fluoro-5-hydroxy-phenylamino)-6-methoxy-7-(3-morpholin-4-yl-propoxy)-quinoline-3-carbonitrile] | 7.39 |  |  |  |  |  |  |  |  |  |  |  |  |  |  |  |  |
|  | COc1cc2ncc(C#N)c(Nc3ccc(F)c(Cl)c3)c2cc1NC(=O)C=CCN(C)C [Example 203, 4-Dimethylamino-but-2-enoic acid [4-(3-chloro-4-fluorophenylamino)-3-cyano-7-methoxy-quinolin-6-yl]-amide] | 5.66 | 20 | 12 | 14 | 16 | 5/5 | 15 | 8 | 12 | 17 | 4/5 | > 6.00 and 6.10 |  |  |  |  |  |
|  | CC(C)N(CC#CC(=O)Nc1ccc2ncc(C#N)c(Nc3cccc(Br)c3)c2c1)C(C)C [Example 192, N-[4-[(3-Bromophenyl)amino]-3-cyano-6-quinolinyl]-4-diisopropylamino-2-butynamide] | 4.40 |  |  |  |  |  |  |  |  |  |  | < 4.00 | 9.22 | 0.05 (≈ 0.0991 µM) | 0.03 (≈ 0.0595 µM) | 0.1 (≈ 0.198 µM) |  |
|  | C=CC(=O)Nc1ccc2ncc(C#N)c(Nc3cccc(I)c3)c2c1 [Example 129] | 4.64 |  |  |  |  |  |  |  |  |  |  | 4.22 | 7.40 |  |  |  |  |
|  | CCN(CC)CC=CC(=O)Nc1cc2c(Nc3ccc(F)c(Cl)c3)c(C#N)cnc2cc1OC [Example 204, 4-Diethylamino-but-2-enoic acid [4-(3-chloro-4-fluorophenylamino)-3-cyano-7-methoxy-quinolin-6-yl]-amide] | 4.68 | 45 | 42 | 55 | 49 | 5/5 | 25 | 18 | 43 | 51 | 4/5 | 4.46 |  |  |  |  |  |
|  | CCN(CC)CC#CC(=O)Nc1ccc2ncc(C#N)c(Nc3cccc(Br)c3)c2c1 [Example 187, N-[4-[(3-Bromophenyl)amino]-3-cyano-6-quinolinyl]-4-diethylamino-2-butynamide] | < 4.38 |  |  |  |  |  |  |  |  |  |  | < 4.00 | 9.15 | 0.06 (≈ 0.126 µM) | 0.06 (≈ 0.126 µM) | 0.05 (≈ 0.105 µM) | 0.07 (≈ 0.147 µM) |
|  | COc1cc2ncc(C#N)c(Nc3ccc(F)c(Cl)c3)c2cc1NC(=O)C=CCN1CCOCC1 [Example 205, 4-Morpholin-4-yl-but-2-enoic acid [4-(3-chloro-4-fluorophenylamino)-3-cyano-7-methoxy-quinolin-6-yl]-amide] | 4.39 | 30 | 25 | 38 | 61 | 5/5 | 23 | 19 | 23 | 29 | 5/5 | < 4.00 |  |  |  |  |  |
|  | N#Cc1cnc2ccc(NC(=O)C#CCN3CCCCC3)cc2c1Nc1cccc(Br)c1 [Example 169, N-{4-[(3-Bromophenyl)amino]-3-cyano-6-quinolinyl}-4-piperidino-2-butynamide] | 4.39 |  |  |  |  |  |  |  |  |  |  | < 4.00 | 8.30 | 0.01 (≈ 0.0205 µM) | 0.02 (≈ 0.041 µM) | 0.1 (≈ 0.205 µM) |  |
|  | CN(C)CC#CC(=O)Nc1ccc2ncc(C#N)c(Nc3ccc(F)c(Cl)c3)c2c1 [Example 193, N-[4-[(3-Chloro-4-fluorophenyl)amino]-3-cyano-6-quinolinyl]-4-dimethylamino-2-butynamide] | 4.32 |  |  |  |  |  |  |  |  |  |  | 4.30 | 8.72 | 0.01 (≈ 0.0237 µM) | 0.003 (≈ 0.00711 µM) | 0.1 (≈ 0.237 µM) |  |
